Laboratory results: patent EP3241555A1, “USE OF PYROPHOSPHATE ION ANALOGUES FOR THE TREATMENT OF HPV INFECTION” (Agencia Pública Empresarial Sanitaria Costa Del Sol, priority 2014, dated 2016)
“And” between values parts separate entries of the source, which are not always exact repeats. Equal values may be shown once.

Key:
[1] = biological target: HIV reverse transcriptase (HIV, RT) (Human immunodeficiency virus type 1 group M subtype B, UniProt P04585); details: read-out: ID50; cited from earlier work
HPV [2] = details: used topically, master formulation as a cream; different types of viral warts; cited from earlier work
HPV [3] = assay: Expanded trial in 28 patients with warts treated with topical foscarnet; type: in vivo, human
Method: A total of 28 patients, from which 64.3% are female patients and 35.7% male patients to whom treatment was administered, were studied. The mean age was […] (6-64) and with a median age of 16 years.
It is important to point out that 96.4% of the patients had received prior treatments without any results, where the most common treatments are cryotherapy involving 78.6% of said patients and topical keratolytic drugs involving 67.9% of them.
Most of the patients (71.4%) applied the treatment 2 times a day and in 78.6% of the cases, the area of application was banded for the night. The rest of the patients applied the treatment 1 or 3 times/day.
The mean duration of the treatment was 11.57 (3-28) weeks.

O=C(O)P(=O)(O)O [Trisodium phosphonoformate]
IC50 [1]: ~1000 nM

Nc1ccn(C[C@@H](CO)OCP(=O)(O)O)c(=O)n1 [cidofovir]
cure rates (HPV [2]): high cure rates

O=C(O)P(=O)(O)O [foscarnet, phosphonoformic acid]
Adverse effects to treatment: No, Percentage (HPV [3]; 28 patients): 89.3% | Adverse effects to treatment: No, Percentage valid (HPV [3]; 28 patients): 89.3% | Adverse effects to treatment: Yes, Percentage valid (HPV [3]; 28 patients): 10.7% | Response to treatment: Complete, Percentage (HPV [3]; 28 patients): 39.3% | Response to treatment: Complete, Percentage valid (HPV [3]; 28 patients): 39.3% | Response to treatment: No, Percentage (HPV [3]; 28 patients): 28.6% | Response to treatment: No, Percentage valid (HPV [3]; 28 patients): 28.6% | Response to treatment: Partial, Percentage (HPV [3]; 28 patients): 32.1% | Response to treatment: Partial, Percentage valid (HPV [3]; 28 patients): 32.1% | percentage of response (HPV [3]; 28 patients, full plus partial response): 71.4% | Adverse effects to treatment: Yes, Percentage (HPV [3]; 28 patients, very mild localized adverse effects (erythema or slight irritation/itch)): 10.7% | Time effect starts (weeks), Maximum (HPV [3]; N valid 28): 16 weeks | Time effect starts (weeks), Mean (HPV [3]; N valid 28): 5.25 (± 4.98) weeks and 5.25 weeks | Time effect starts (weeks), Median (HPV [3]; N valid 28): 4.00 weeks | Time effect starts (weeks), Minimum (HPV [3]; N valid 28): 0 weeks | Adverse effects to treatment: No, Frequency (HPV [3]; number of patients out of 28): 25 | Response to treatment: Complete, Frequency (HPV [3]; number of patients out of 28): 11 | Response to treatment: No, Frequency (HPV [3]; number of patients out of 28): 8 | Response to treatment: Partial, Frequency (HPV [3]; number of patients out of 28): 9 | Recurrence: No, Frequency (HPV [3]; number of patients out of 28, 1 lost): 27 | Adverse effects to treatment: Yes, Frequency (HPV [3]; number of patients out of 28, very mild localized adverse effects (erythema or slight irritation/itch)): 3 | Recurrence: No, Percentage valid (HPV [3]; of 27 valid patients): 100.0% | Recurrence: No, Percentage (HPV [3]; of 28 patients, 1 lost): 96.4%
